assay: gradient 5% acetonitrile 3 min, to 50% in 2 min, to 85% in 15 min, held 3 min, 100 µL/min; settings: column: Zorbax Extend-C18 2.1 x 50 mm; eluents: water / acetonitrile, 0.1% formic acid
How it was run: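 Over 3 months, pure standards in mixtures of ~100 molecules were run by HPLC coupled to a quadrupole time-of-flight mass spectrometer in positive and negative ionization mode. The column was a Zorbax Extend-C18 (2.1 × 50 mm, 1.8 μm) at 100 μL/min, eluted with water and acetonitrile each holding 0.1% formic acid, with 40 μL dead and 900 μL dwell volumes. Retention time was determined from adduct peaks chosen by software and checked manually.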

Point of comparison: `COc1cccc(-c2noc(N3CCCC3)n2)c1`, RP-LC retention time 898 s. Against it:
- CN(C)C(=O)OC1=C(c2ccccc2)Sc2ccccc2-n2cccc21 — higher, 1250 s
- Cc1nc(-c2csc(S(=O)(=O)N3CCC(C(=O)N(C)Cc4ccccc4)CC3)c2)no1 — the same, 898 s
- CCc1nnc2cc(N3CCN(C(=O)c4ccc(OC)cc4)CC3)cnn12 — lower, 615 s
- O=C(NCCCN1CCOCC1)c1ccc2c(c1)N(C(=O)c1ccc(F)cc1)CC2 — lower, 615 s
- CC(C)N1CCN(C(=O)C2CC(=O)N(CCc3ccccc3)C2)CC1 (stereo not given) — lower, 573 s
- CC(C(=O)Nc1ccc(F)c(F)c1)C1CCN(C(=O)Nc2ccc(Cl)cc2)CC1 (stereo not given) — higher, 984 s
- O=C(Cc1cccs1)Nc1ccc(Nc2ccc(-n3cccn3)nn2)cc1 — lower, 708 s
- CC(C)n1cnc2cc(CNC(=O)Cc3ccsc3)ccc21 — lower, 582 s
- Cn1c(-c2ccccc2)nn(CCNS(=O)(=O)c2ccc(Cl)s2)c1=O — lower, 748 s
- CC1CCN(CCCNC(=O)C2(O)c3ccccc3NC(=O)N2c2ccc(Cl)cc2)CC1 (stereo not given) — lower, 582 s
- COc1ccc(CNc2c(C(=O)OC(C)C)cnc3nc(C)ccc23)cc1 — lower, 740 s
- COC(=O)Cn1cnc2c(-c3ccc(Br)cc3)csc2c1=O — higher, 943 s
- Cn1cc(C(=O)NCc2ccc(F)c(Cl)c2)c(S(=O)(=O)N2CCCCC2)n1 — lower, 876 s
- Cc1ccc(-c2nnc(N3CCC(C(=O)NC(C)c4ccc(F)cc4)CC3)o2)cc1 (stereo not given) — lower, 892 s
- COc1ccc(N2CC(C(=O)N3CC4CC3C(=O)O4)CC2=O)cc1 (stereo not given) — lower, 598 s
- CCOC(=O)C1=C(CN2CCC(C)CC2)NC(=O)NC1c1cccs1 (stereo not given) — lower, 611 s
- O=C(Cn1cnc(-c2cccs2)cc1=O)NCc1nc2ccccc2[nH]1 — lower, 570 s
- CC(C)n1c(N2CCN(C(=O)Cc3c[nH]c4ccccc34)CC2)cc(=O)n(C(C)C)c1=O — lower, 824 s
- O=C(NCCN1CCCC1)c1nnc(-c2ccc(S(=O)(=O)N3CCCC3)cc2)o1 — lower, 602 s
- CN(C)c1nc2ncn3c(=O)n(CC(=O)NC4CCc5ccccc54)nc3c2s1 (stereo not given) — lower, 864 s
- Cc1cc(C(=O)N2CCCn3ccnc3C2C2CCCC2)on1 (stereo not given) — lower, 599 s
- Cc1nc2cc(-c3noc(Cc4ccccc4C)n3)ccc2o1 — higher, 1060 s
- Cc1cc(C)n(-c2ccnc(N3CCC(C(=O)NCc4cccnc4)CC3)n2)n1 — lower, 612 s
- O=C(c1ccco1)N1CCN(c2ccc(-c3noc(C4CC4)n3)cc2)CC1 — lower, 864 s
- Cc1oc(C2CCN(S(=O)(=O)c3cccc(F)c3)CC2)nc1C(=O)N(C)C — lower, 798 s
- O=C(C1CC1)N1CCC2(CCCCO2)CC1 — lower, 668 s
- CCn1ccc(C(=O)NC(C(=O)N2CCCc3ccccc32)c2ccccc2)n1 (stereo not given) — higher, 967 s
- Cc1ccc(Oc2nccnc2N2CCCC(C(=O)NCc3ccc(C)c(C)c3)C2)cc1 (stereo not given) — higher, 1140 s
- Cn1c(=O)c2c(nc3n(-c4ccccc4N)c(-c4ccc(Cl)cc4)cn23)n(C)c1=O — lower, 883 s
- O=C(Cn1nc(C(=O)N2CCCC2)c2ccccc21)NC1CCCC1 — lower, 758 s
- O=C(Cn1nc2c3cc(F)ccc3ncn2c1=O)Nc1ccccc1F — lower, 656 s
- Cc1sc(NC(=O)CCc2ccccc2)nc1-c1ccc2c(c1)NC(=O)C(C)O2 (stereo not given) — lower, 687 s
- COc1ccc(Cn2nc3c(S(=O)(=O)N4CCCC4)cccn3c2=O)cc1 — lower, 804 s
- COc1ccc(NC(=O)N2CCCC(C)(C(=O)NCc3ccccc3C)C2)c(OC)c1 (stereo not given) — lower, 866 s
- COCc1c(C(=O)O)nnn1-c1ccc(OC)c(OC)c1 — lower, 626 s
- O=C(NCc1ccccc1Br)C1CCN(c2nnc(-c3ccccc3)o2)CC1 — lower, 880 s
- CCC(C(=O)NCc1cccnc1)n1c2ccccc2c2cnn(C)c(=O)c21 (stereo not given) — lower, 615 s
- CC(C(=O)N1CCN(c2ccccn2)CC1)N1Cc2ccccc2C1=O (stereo not given) — lower, 587 s
- CCn1c(=O)c2ccn(CC(=O)NCc3ccc(SC)cc3)c2n(CC)c1=O — lower, 744 s
- CCOc1ccc(C(=O)NCc2ccc3c(c2)Sc2ncccc2C(=O)N3CC)cc1 — lower, 791 s
- COc1cccc(N2CCN(C(=O)c3cc4c(-c5cccs5)nn(-c5ccccc5)c4n3C)CC2)c1 — higher, 1180 s
- Cc1nnc2c(=O)n(CC(=O)NCc3ccccc3F)c3cccnc3n12 — lower, 649 s
- COc1ccc(-c2cc(N3CCN(C(=O)Nc4ccc5c(c4)OCCO5)CC3)ncn2)cc1 — lower, 652 s
- Cc1nn2c(S(=O)(=O)NC3CCCCCC3)c(C)nc2s1 — lower, 844 s
